In US7067553B2, “Thiourea compounds and the pharmaceutical compositions containing the same” (Pacific Corporation, priority 2000, dated 2006):

How the values were obtained:
vanilloid receptor = biological target: T1, vanilloid receptor (Rattus norvegicus, UniProt O35433); experiment: 45Ca influx test (calcium uptake) in cultured DRG neurons, capsaicin-stimulated; type: cell-based; settings: neonatal SD rat DRG neurons; capsaicin 0.5 μM; 45Ca 10 μCi/ml; 10 min at room temperature; NR: no response
T1 construct: DRG nerve cells from the primary culture of 2–3 days were equilibrated; endogenous in cells; host or cells: primary culture of dorsal root ganglion neurons from neonatal SD rats
Experimental: 1) Separation of Spinal Dorsal Root Ganglia (DRG) in Newborn Rats and Primary Culture Thereof
Neonatal(2-day old or younger than 2-day old) SD rats were put in ice for 5 minutes to anesthetize and disinfected with 70% ethanol. DRG of all part of spinal cord were dissected (Wood et al., 1988, J. Neurosci. 8, pp3208–3220) and collected in DME/F12 medium to which 1.2 g/l sodium bicarbonate, 50 mg/l gentamycin were added. The DRG were incubated sequentially at 37° C. for 30 min in 200 U/ml collagenase and 2.5 mg/mil trypsin, separately. The ganglia were washed twice with DME/F12 medium supplemented with 10% horse serum, triturated through a fire-polished Pasteur pipette, filtered through Nitex 40 membrane to obtain single cell suspension. This was subjected to centrifugation, then re-suspended in cell culture medium at certain level of cell density. As the cell culture medium, DME/F12 medium supplemented with 10% horse serum, diluted 1:1 with identical medium conditioned by C6 glioma cells (2 days on a confluent monolayer) was used, and NGF(Nerve Growth Factor) was added to final concentration of 200 ng/ml. After the cells were grown 2 days in medium where cytosine arabinoside (Ara-C, 100 μM) was added to kill dividing nonneuronal cells, medium was changed to one without Ara-C. The resuspended cells were plated at a density of 1500–1700 neurons/well onto Terasaki plates previously coated with 10 μg/ml poly-D-ornithine.
2) ^45Ca Influx Experiments
DRG nerve cells from the primary culture of 2–3 days were equilibrated by washing 4 times with HEPES (10 mM, pH 7.4)-buffered Ca^2+, Mg^2+-free HBSS (H-ABSS). The solution in each well was removed from the individual well. Medium containing the test compound plus capsaicin (final concentration 0.5 μM) and ^45Ca (final concentration 10 μCi/ml) in H-HBSS was added to each well and incubated at room temperature for 10 min. Terasalki plates were washed six times with H-HBSS and dried in an oven. To each well, 0.3% SDS (10 μl) was added to elute ^45Ca. After the addition of […] of scintillation cocktail into each well, the amount of ^45Ca influx into neuron was measured by counting radioactivity.

Male ICR mice [1] = experiment: Analgesic activity test: mouse writhing test by inducing with phenyl-p-quinone; type: in vivo; settings: dose 1 mg/kg intraperitoneally 30 min before phenyl-p-quinone; writhes vs control
Experimental: (3) Analgesic Activity Test: Mouse Writhing Test by Inducing with Phenyl-p-quinone
Male ICR mice (mean body weight 25 g) were maintained in a controlled lighting environment (12 h on/12 h off for experiment. Animals received an intraperitoneal injection of 0.3 ml of the chemical irritant phenyl-p-quinone (dissolved in saline containing 5% ethanol to be a dose of 4.5 mg/lkg) and 6 min later, the number of abdominal constrictions was counted in the subsequent 6 min period. Animals (10 animals/group) received 0.2 ml of test compounds solution in vehicle of ethanol/Tween 80/saline (10/10/80) intraperitoneally 30 min before the injection of phenyl-p-quinone. A reduction in the number of writhes responding to the test drug compound relative to the number responding in saline control group was considered to be indicative of an analgesic effect. Analgesic effect was calculated by % inhibition equation (% inhibitio=(C−T)/C×100), wherein C and T represent the number of writhes in control and compound-treated group, respectively (Table 2).

Male ICR mice [2] = experiment: Antiinflammatory activity test: TPA-induced mouse ear edema test; type: in vivo; settings: dose 1 mg/ear topical; TPA 2.5 μg; ear weight 24 h after TPA
Experimental: (4) Antiinflammatory Activity Test: TPA(12-O-tetradecanoylphorbol 13-acetate)-induced Mouse Ear Edema Test
Male ICR mice(body weight 25–30 g), 10 animals/group, were treated topically on the right ear with 30 μl of TPA (2.5 μg) solution in acetone and after 15 min. 30 μl of acetone or test compound solution in acetone was applied topically. After six hours, an identical treatment was applied again. After twenty four hours following the treatment of TPA, the animals were sacrificed and ear tissue was dissected using 6 mm-diameter punch. Ear tissue dissected were weighed to the nearest 0.1 mg on an electrobalance. The increased weight of the tissue compared to control group was considered as an index of inflammation. The percent inhibition is defined by the following equation: % inlibition=(C−T)/C×100, wherein C and T represent an increase of ear weight in TPA-treated and TPA+drug-treated group, respectively.

T1 sequence (O35433 whole entry): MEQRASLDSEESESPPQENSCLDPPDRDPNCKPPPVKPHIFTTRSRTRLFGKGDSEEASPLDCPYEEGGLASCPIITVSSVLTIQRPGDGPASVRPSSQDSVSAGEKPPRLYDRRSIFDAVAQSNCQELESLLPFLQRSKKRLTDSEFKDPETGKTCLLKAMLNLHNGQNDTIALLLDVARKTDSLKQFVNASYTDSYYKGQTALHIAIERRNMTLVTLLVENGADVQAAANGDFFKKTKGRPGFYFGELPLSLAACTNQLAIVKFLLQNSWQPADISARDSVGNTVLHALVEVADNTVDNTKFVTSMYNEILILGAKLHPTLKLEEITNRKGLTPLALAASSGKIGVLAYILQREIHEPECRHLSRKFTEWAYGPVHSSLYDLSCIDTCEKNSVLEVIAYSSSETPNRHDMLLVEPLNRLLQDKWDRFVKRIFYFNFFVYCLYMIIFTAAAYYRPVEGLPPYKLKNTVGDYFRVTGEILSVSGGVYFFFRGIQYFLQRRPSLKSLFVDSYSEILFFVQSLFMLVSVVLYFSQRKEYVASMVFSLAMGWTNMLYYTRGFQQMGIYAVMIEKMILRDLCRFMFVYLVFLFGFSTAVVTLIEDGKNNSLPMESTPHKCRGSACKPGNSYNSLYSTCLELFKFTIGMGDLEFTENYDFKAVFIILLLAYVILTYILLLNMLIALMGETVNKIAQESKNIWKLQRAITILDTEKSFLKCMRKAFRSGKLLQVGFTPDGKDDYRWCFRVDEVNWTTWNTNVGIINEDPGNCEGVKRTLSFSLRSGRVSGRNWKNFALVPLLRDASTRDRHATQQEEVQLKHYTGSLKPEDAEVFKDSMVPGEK

`CC(C)(C)C(=O)OCC(CCc1ccc(C(C)(C)C)cc1)CNC(=S)NCc1ccc(NS(C)(=O)=O)cc1` (stereo not shown) [Example 17] gave an IC50 (vanilloid receptor) of 1800 nM.
For `CC(C)(C)C(=O)OCC(C/N=C(\S)NCc1ccc(NS(C)(=O)=O)cc1)Cc1ccc(C(C)(C)C)cc1` (stereo not shown) [Example 10], the IC50 (vanilloid receptor) was 2500 nM.
`COc1cc(C/N=C(\S)NCC(COC(=O)c2ccccc2)Cc2ccc(C(C)(C)C)cc2)ccc1NS(C)(=O)=O` (stereo not shown) [Example 15] showed an IC50 (vanilloid receptor) of over 50000 nM.
For `Cc1ccc(CCC(CNC(=S)NCc2ccc(NS(C)(=O)=O)cc2)COC(=O)C(C)(C)C)cc1C` (stereo not shown) [Example 16], the IC50 (vanilloid receptor) was 1100 nM.
In the case of `Cc1ccc(CC(CN/C(S)=N/Cc2ccc(NS(C)(=O)=O)cc2)COC(=O)c2ccccc2)cc1C` (stereo not shown) [Example 9], the IC50 (vanilloid receptor) is reported as 13000 nM.
With `CC(C)(C)c1ccc(CC(CNC(=S)NCc2ccc(NS(C)(=O)=O)cc2)COC(=O)c2ccccc2)cc1` (stereo not shown) [Example 11] the IC50 (vanilloid receptor) was over 50000 nM.
For `COc1cc(CNC(=S)NCC(COC(=O)C(C)(C)C)Cc2ccc(C)c(C)c2)ccc1NS(C)(=O)=O` (stereo not shown) [Example 12], the “Analgesic effect (% Inhibition)” value (Male ICR mice [1]) was 65%, the “Anti-inflammatory effect (% Inhibition)” value (Male ICR mice [2]) was 41% and the IC50 (vanilloid receptor) was 680 nM.
With `COc1cc(CNC(=S)NCC(COC(=O)c2ccccc2)Cc2ccc(C)c(C)c2)ccc1NS(C)(=O)=O` (stereo not shown) [Example 13] the IC50 (vanilloid receptor) was 38000 nM.
